# From ChEMBL document CHEMBL1201862, “PubChem BioAssay data set” (2004)
#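 Protocol summary: plate cells (96-well), add compound at 5 concentrations, incubate 48 h, interpolate endpoints linearly. At the GI50, growth is halved.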 Active and inactive are the calls of the source. Cut-off read from the data, not from the text of the source: active = GI50 up to about 1.1 µM and inactive = higher.
# Key:
# Assay in all cases: inhibition of tumour cell growth, NCI panel, 48 h
# OVCAR-8 = tested on: OVCAR-8
# ACHN = tested on: ACHN
# HCT-15 = tested on: HCT-15
# EKVX = tested on: EKVX
# SN12C = tested on: SN12C
# DMS-273 = tested on: DMS-273
# UACC-62 = tested on: UACC-62
# A498 = tested on: A498
# DMS-114 = tested on: DMS-114
# U-251 = tested on: U-251
# CAKI-1 = tested on: CAKI-1
# HT-29 = tested on: HT-29
# LXFL 529 = tested on: LXFL 529
# SW-620 = tested on: SW-620
# M14 = tested on: M14
# OVCAR-5 = tested on: OVCAR-5
# RXF 631 = tested on: RXF 631
# A549 = tested on: A549
# COLO 205 = tested on: COLO 205
# TK-10 = tested on: TK-10
# SF-539 = tested on: SF-539
# 786-0 = tested on: 786-0
# LOX IMVI = tested on: LOX IMVI
# SK-MEL-28 = tested on: SK-MEL-28
# SNB-78 = tested on: SNB-78
# SK-OV-3 = tested on: SK-OV-3
# RXF 393 = tested on: RXF 393
# NCI-H460 = tested on: NCI-H460
# IGROV-1 = tested on: IGROV-1
# KM-20L2 = tested on: KM-20L2
# HOP-62 = tested on: HOP-62
# XF498 = tested on: XF498
# Malme-3M = tested on: Malme-3M
# SF-295 = tested on: SF-295
# RPMI-8226 = tested on: RPMI-8226
# SK-MEL-2 = tested on: SK-MEL-2
# CCRF-CEM = tested on: CCRF-CEM
# KM12 = tested on: KM12
# SK-MEL-5 = tested on: SK-MEL-5
# M19-MEL = tested on: M19-MEL
# UACC-257 = tested on: UACC-257
# DLD-1 = tested on: DLD-1
# SNB-75 = tested on: SNB-75
# OVCAR-4 = tested on: OVCAR-4
# NCI-H522 = tested on: NCI-H522
# NCI-H23 = tested on: NCI-H23
# UO-31 = tested on: UO-31
# SF-268 = tested on: SF-268
# K562 = tested on: K562
# HCC 2998 = tested on: HCC 2998
# OVCAR-3 = tested on: OVCAR-3
# HCT-116 = tested on: HCT-116
# HL-60 = tested on: HL-60
# HOP-92 = tested on: HOP-92
# SR = tested on: SR
# MOLT-4 = tested on: MOLT-4
# SNB-19 = tested on: SNB-19
# NCI-H226 = tested on: NCI-H226
# HOP-18 = tested on: HOP-18
compound,measurement,setting,value
O=C1OCc2c1cc1ccc(O)c(OC3OC(CO)C(O)C(O)C3O)c1c2-c1ccc2c(c1)OCO2 (stereo not drawn),GI50,OVCAR-8,94 µM (inactive)
same,GI50,ACHN,72.1 µM (inactive)
same,GI50,HCT-15,46.2 µM
same,GI50,EKVX,> 100 µM (inactive)
same,GI50,SN12C,89.3 µM (inactive)
same,GI50,DMS-273,94.6 µM (inactive)
same,GI50,UACC-62,76.9 µM (inactive)
same,GI50,A498,> 100 µM (inactive)
same,GI50,DMS-114,47.5 µM (inactive)
same,GI50,U-251,> 100 µM (inactive)
same,GI50,CAKI-1,87.3 µM (inactive)
same,GI50,HT-29,47.2 µM (inactive)
same,GI50,LXFL 529,68.1 µM (inactive)
same,GI50,SW-620,> 100 µM (inactive)
same,GI50,M14,87.3 µM (inactive)
same,GI50,OVCAR-5,> 100 µM (inactive)
same,GI50,RXF 631,> 100 µM (inactive)
same,GI50,A549,> 100 µM (inactive)
same,GI50,COLO 205,> 100 µM (inactive)
same,GI50,TK-10,> 100 µM (inactive)
same,GI50,SF-539,> 100 µM (inactive)
same,GI50,786-0,> 100 µM (inactive)
same,GI50,LOX IMVI,86.7 µM (inactive)
same,GI50,SK-MEL-28,67.8 µM (inactive)
same,GI50,SNB-78,89.3 µM (inactive)
same,GI50,SK-OV-3,> 100 µM (inactive)
same,GI50,RXF 393,59.4 µM (inactive)
same,GI50,NCI-H460,> 100 µM (inactive)
same,GI50,IGROV-1,> 100 µM (inactive)
same,GI50,KM-20L2,> 100 µM (inactive)
same,GI50,HOP-62,> 100 µM (inactive)
same,GI50,XF498,62.7 µM (inactive)
same,GI50,Malme-3M,> 100 µM (inactive)
same,GI50,SF-295,> 100 µM (inactive)
CCOC(=O)C1S(=O)(=O)OCCOS1(=O)=O,GI50,OVCAR-8,> 100 µM (inactive)
same,GI50,RPMI-8226,> 100 µM (inactive)
same,GI50,SK-MEL-2,> 100 µM (inactive)
same,GI50,EKVX,> 100 µM (inactive)
same,GI50,SN12C,> 100 µM (inactive)
same,GI50,CCRF-CEM,> 100 µM (inactive)
same,GI50,DMS-273,> 100 µM (inactive)
same,GI50,UACC-62,> 100 µM (inactive)
same,GI50,KM12,> 100 µM (inactive)
same,GI50,SK-MEL-5,> 100 µM (inactive)
same,GI50,CAKI-1,> 100 µM (inactive)
same,GI50,M19-MEL,> 100 µM (inactive)
same,GI50,HT-29,> 100 µM (inactive)
same,GI50,UACC-257,> 100 µM (inactive)
same,GI50,DLD-1,> 100 µM (inactive)
same,GI50,SNB-75,> 100 µM (inactive)
same,GI50,LXFL 529,> 100 µM (inactive)
same,GI50,SW-620,> 100 µM (inactive)
same,GI50,M14,> 100 µM (inactive)
same,GI50,RXF 631,> 100 µM (inactive)
same,GI50,OVCAR-4,> 100 µM (inactive)
same,GI50,A549,> 100 µM (inactive)
same,GI50,COLO 205,> 100 µM (inactive)
same,GI50,TK-10,> 100 µM (inactive)
same,GI50,NCI-H522,> 100 µM (inactive)
same,GI50,SF-539,> 100 µM (inactive)
same,GI50,786-0,> 100 µM (inactive)
same,GI50,NCI-H23,> 100 µM (inactive)
same,GI50,UO-31,> 100 µM (inactive)
same,GI50,SF-268,> 100 µM (inactive)
same,GI50,LOX IMVI,> 100 µM (inactive)
same,GI50,K562,> 100 µM (inactive)
same,GI50,SK-MEL-28,> 100 µM (inactive)
same,GI50,SNB-78,> 100 µM (inactive)
same,GI50,SK-OV-3,> 100 µM (inactive)
same,GI50,HCC 2998,> 100 µM (inactive)
same,GI50,OVCAR-3,> 100 µM (inactive)
same,GI50,HCT-116,> 100 µM (inactive)
same,GI50,HL-60,> 100 µM (inactive)
same,GI50,HOP-92,> 100 µM (inactive)
same,GI50,IGROV-1,> 100 µM (inactive)
same,GI50,SR,> 100 µM (inactive)
same,GI50,HOP-62,> 100 µM (inactive)
same,GI50,XF498,> 100 µM (inactive)
same,GI50,MOLT-4,> 100 µM (inactive)
same,GI50,SNB-19,> 100 µM (inactive)
same,GI50,Malme-3M,> 100 µM (inactive)
same,GI50,SF-295,> 100 µM (inactive)
C[C@@H]1O[C@]2(O)[C@@H]3CCCN3S(=O)(=O)CCN2C1=O,GI50,OVCAR-8,> 100 µM (inactive)
same,GI50,RPMI-8226,> 100 µM (inactive)
same,GI50,ACHN,> 100 µM (inactive)
same,GI50,HCT-15,> 100 µM
same,GI50,EKVX,> 100 µM (inactive)
same,GI50,SN12C,> 100 µM (inactive)
same,GI50,CCRF-CEM,> 100 µM (inactive)
same,GI50,UACC-62,> 100 µM (inactive)
same,GI50,KM12,> 100 µM (inactive)
same,GI50,A498,> 100 µM (inactive)
same,GI50,SK-MEL-5,> 100 µM (inactive)
same,GI50,U-251,> 100 µM (inactive)
same,GI50,CAKI-1,> 100 µM (inactive)
same,GI50,M19-MEL,> 100 µM (inactive)
same,GI50,HT-29,> 100 µM (inactive)
same,GI50,UACC-257,> 100 µM (inactive)
same,GI50,DLD-1,> 100 µM (inactive)
same,GI50,SNB-75,> 100 µM (inactive)
same,GI50,LXFL 529,> 100 µM (inactive)
same,GI50,SW-620,> 100 µM (inactive)
same,GI50,M14,> 100 µM (inactive)
same,GI50,OVCAR-5,> 100 µM (inactive)
same,GI50,RXF 631,> 100 µM (inactive)
same,GI50,OVCAR-4,> 100 µM (inactive)
same,GI50,A549,> 100 µM (inactive)
same,GI50,COLO 205,> 100 µM (inactive)
same,GI50,TK-10,> 100 µM (inactive)
same,GI50,NCI-H522,> 100 µM (inactive)
same,GI50,SF-539,> 100 µM (inactive)
same,GI50,786-0,> 100 µM (inactive)
same,GI50,NCI-H23,> 100 µM (inactive)
same,GI50,UO-31,> 100 µM (inactive)
same,GI50,NCI-H226,> 100 µM (inactive)
same,GI50,SF-268,> 100 µM (inactive)
same,GI50,LOX IMVI,> 100 µM (inactive)
same,GI50,K562,> 100 µM (inactive)
same,GI50,SK-MEL-28,> 100 µM (inactive)
same,GI50,SNB-78,> 100 µM (inactive)
same,GI50,SK-OV-3,> 100 µM (inactive)
same,GI50,HCC 2998,> 100 µM (inactive)
same,GI50,RXF 393,> 100 µM (inactive)
same,GI50,OVCAR-3,> 100 µM (inactive)
same,GI50,HCT-116,> 100 µM (inactive)
same,GI50,NCI-H460,> 100 µM (inactive)
same,GI50,HL-60,> 100 µM (inactive)
same,GI50,HOP-92,> 100 µM (inactive)
same,GI50,IGROV-1,> 100 µM (inactive)
same,GI50,HOP-18,> 100 µM (inactive)
same,GI50,SR,> 100 µM (inactive)
same,GI50,KM-20L2,> 100 µM (inactive)
same,GI50,HOP-62,> 100 µM (inactive)
same,GI50,XF498,8.41 µM (inactive)
same,GI50,MOLT-4,> 100 µM (inactive)
same,GI50,SNB-19,> 100 µM (inactive)
same,GI50,Malme-3M,> 100 µM (inactive)
same,GI50,SF-295,> 100 µM (inactive)
